Experimental findings from patent US20120289432A1, “PI3K MODULATORS, RHO KINASE MODULATORS AND METHODS OF IDENTIFYING AND USING SAME” (Corning Incorporated, priority 2009, published 2012) are described below.

What all share (assay type): cell-based, human
One experiment concerns A549 and A431 cells. The experiment is described as follows: DMR index against panels of markers across A549 and A431 cells, compared with LY294002. To be noted: markers pinacidil, forskolin, histamine (A549), EGF (A431). Here is the method: (§1) The index was generated after normalizing each marker-induced DMR signal in the presence of the inhibitor to its corresponding signal in the absence of the inhibitor. The percentage of modulation for each marker by the inhibitor was plotted as a function of the marker. As shown from left to right in a sequential order, the DMR events used for the basis of the modulation percentage calculation are: the N-DMR (50 min after stimulation) for pinacidil in A549, the P-DMR (50 min after stimulation) for forskolin in A549, the early P-DMR event (˜10 min after histamine stimulation) and the late P-DMR event (˜30 min after histamine stimulation) for histamine in A549, and the early P-DMR event (˜5 min after EGF stimulation) and the subsequent N-DMR event (˜30 min after EGF stimulation) for EGF in A431 cells. In all cases, the amplitudes of respective DMR events were used as the basis to calculate the percentages of modulation by the PI3K inhibitors. The same procedure was used to generate FIGS. 8 to 14.
Optical biosensors such as RWG biosensor measure dynamic mass redistribution (DMR) signals of cells upon stimulation. A DMR index contains the primary DMR profile or signal of a chemical acting on a panel of live cells, and the modulation index of the chemical against panels of markers across the panel of cells, a panel of markers for each cell line. […]

Experiment [1] has as its system A549 cells. In words: Label-free RWG (Epic) biosensor DMR assay, agonism mode, A549 cells. Conditions: primary profile. How it is done: (§2) Cells were typically grown using ˜1 to 2×10^4 cells per well at passage 3 to 15 suspended in 50 μl of the corresponding culture medium in the biosensor microplate, and were cultured at 37° C. under air/5% CO2 for ˜1 day. Except for A431 which underwent one day culture followed by one starvation in serum free medium, all other cells were directly assayed without starvation. The confluency for all cells at the time of assays was ˜95% to 100%.
(§3) Epic® beta version wavelength interrogation system (Corning Inc., Corning, N.Y.) was used for whole cell sensing. This system consists of a temperature-control unit, an optical detection unit, and an on-board liquid handling unit with robotics. The detection unit is centered on integrated fiber optics, and enables kinetic measures of cellular responses with a time interval of ˜15 sec.
(§4) For biosensor cellular assays, molecule solutions were made by diluting the stored concentrated solutions with the HBSS (1× Hanks balanced salt solution, plus 20 mM Hepes, pH 7.1), and transferred into a 384 well polypropylene molecule storage plate to prepare a molecule source plate. Both molecule and marker source plates were made separately when a two-step assay was performed. In parallel, the cells were washed twice with the HBSS and maintained in 30 μl of the HBSS to prepare a cell assay plate. Both the cell assay plate and the molecule and marker source plate(s) were then incubated in the hotel of the reader system. After ˜1 hr of incubation the baseline wavelengths of all biosensors in the cell assay microplate were recorded and normalized to zero. Afterwards, a 2 to 10 minute continuous recording was carried out to establish a baseline, and to ensure that the cells reached a steady state. Cellular responses were then triggered by pipetting 10 μl of the marker solutions into the cell assay plate using the on-board liquid handler.
(§5) All studies were carried out at a controlled temperature (28° C.). At least two independent sets of experiments, each with at least three replicates, were performed.

In experiment [2] the test system is HepG2 cells. The experiment is described as follows: Label-free RWG biosensor DMR assay, agonism mode, HepG2 cells. Conditions: primary profile. How it is done: as §2, §3
(§6) For biosensor cellular assays, molecule solutions were made by diluting the stored concentrated solutions with the HBSS (1× Hanks balanced salt solution, plus 20 mM Hepes, pH 7.1), and transferred into a 384 well polypropylene molecule storage plate to prepare a molecule source plate. […] Both the cell assay plate and the molecule and marker source plate(s) were then incubated in the hotel of the reader system. After ˜1 hr of incubation the baseline wavelengths of all biosensors in the cell assay microplate were recorded and normalized to zero. […]

The test system of another experiment is HT-29 cells. The experiment is described as follows: Label-free RWG biosensor DMR assay, agonism mode, HT-29 cells. To be noted: primary profile. How it is done:
as §2, §3, §6

Experiment [3] has as its system A549 cells. In words: DMR modulation of marker-induced responses (two-step assay) in A549 cells. Conditions: for modulation of the pinacidil response in A549 cells: compound pretreatment ~1 hr (10 micromolar), then pinacidil 10 micromolar. Here is the method:
as §1, §2, §4
To study the influence of molecules on a marker-induced response, a second stimulation with the marker at a fixed dose (typically at EC80 or EC100) was applied. The resonant wavelengths of all biosensors in the microplate were normalized again to establish a second baseline, right before the second stimulation. The two stimulations were usually separated by ˜1 hr.
as §5

Experiment [4] relates to HepG2 cells. The experiment is described as follows: DMR modulation of the ODN2006-induced response in HepG2 cells. To be noted: inhibitor 10 micromolar, ODN2006 500 nM. Here is the method: as §2
as §4, with “Cellular responses were then triggered by pipetting 10 μl of the marker solutions into the cell assay plate using the on-board liquid handler.” left out

The subject of experiment [5] is A549 cells. In words: Desensitization of pretreated A549 cells to stimulation with ROCK inhibitor Y-27632. Conditions: pretreatment 10 micromolar ~1 hour, then Y-27632 at EC100 (10 micromolar). An excerpt:
FIG. 19 The optical biosensor DMR signals of human lung cancer cell line A549 in response to a well-known Rho kinase inhibitor […] (10 micromolar) in the absence (“buffer”) and presence of two compounds (the Rho kinase inhibitor Y27632, and another Rho kinase inhibitor “compound”). Either of these two inhibitors at 10 micromolar was used to pretreat the A549 cells for ˜1 hr, before the stimulation with Y27632. The desensitization of cells to the second stimulation with Y27632 is an indicator that the compound used for the pretreatment of the cells is a Rho kinase inhibitor.
For biosensor cellular assays, molecule solutions were made by diluting the stored concentrated solutions with the HBSS (1× Hanks balanced salt solution, plus 20 mM Hepes, pH 7.1), and transferred into a 384 well polypropylene molecule storage plate to prepare a molecule source plate. Both molecule and marker source plates were made separately when a two-step assay was performed. In parallel, the cells were washed twice with the HBSS and maintained in 30 μl of the HBSS to prepare a cell assay plate. Both the cell assay plate and the molecule and marker source plate(s) were then incubated in the hotel of the reader system. After ˜1 hr of incubation the baseline wavelengths of all biosensors in the cell assay microplate were recorded and normalized to zero. […]

Entries after “also recorded” stand apart in the source; their conditions may differ.

Consider `O=c1cc(N2CCNCC2)oc2c(-c3ccccc3)cccc12` [LY303511], for which the “type of DMR index compared with the PI3K inhibitor LY294002” value with A549 and A431 cells is given as “completely distinct type of DMR index”.
On to `C[C@@H](N)[C@H]1CC[C@H](C(=O)Nc2ccncc2)CC1` [Y-27632], for which the “DMR (biosensor) signal of the compound in A549 cells” value in the experiment with A549 cells [1] is “detectable, and dose-dependent biosensor signals; also recorded: characteristic negative DMR signal”. In addition, the “DMR (biosensor) signal of the compound in HepG2 cells” value in the experiment with HepG2 cells [2] is “net-zero DMR signal”. The “DMR (biosensor) signal of the compound in HT-29 cells” value with HT-29 cells is “detectable, and dose-dependent biosensor signals”. For the same compound, the “modulation of the pinacidil response in A549 cells” value with A549 cells [3] is on record as “complete or significant attenuation; also recorded: attenuated”. Further, in the experiment with A549 cells [3] (listed as Y027632), the “modulation of the pinacidil response in A549 cells” value was “dose-dependently attenuate”. In addition, the “modulation of the pinacidil response in A549 cells” value in the experiment with A549 cells [3] (listed as Y27632) is listed as “fully attenuated; also recorded: almost completely attenuated”. Also, in the experiment on A549 cells [3] (inhibitor 10 micromolar, forskolin 16 micromolar), the “modulation of the forskolin response (P-DMR) in A549 cells” value is given as “potentiated”. The “modulation of the histamine response (early and late P-DMR) in A549 cells” value in the experiment on A549 cells [3] (inhibitor 10 micromolar, histamine 10 micromolar) is reported as “potentiated”. In addition, in the experiment on A549 cells [3] (pretreatment 10 micromolar), the “modulation of the PMA response in A549 cells” value was “potentiated”, the “modulation of the SLIGKV response in A549 cells” value was “potentiated” and the “modulation of the poly(IC) response in A549 cells” value is given as “potentiated”. Also, the “modulation of the ODN2006 DMR signal in HepG2 cells” value with HepG2 cells [4] is reported as “potentiated”. Also, in the experiment on A549 cells [5], the “desensitization of A549 cells to second stimulation with Y-27632” value was “significantly caused the cells desensitize”.
